US10278956B1, “Use of intravenous melatonin in patients with ST-elevation myocardial infarction” (priority 2018, dated 2019)
“Also recorded” adds a separate entry of the source.

Tests used:
STEMI-patients = experiment: Pilot randomized, double-blinded, placebo controlled study of intravenous melatonin before pPCI; infarct size by CMR; format: in vivo, human
Description: This pilot study is a prospective, randomized, double-blinded, placebo controlled study of consecutive patients admitted with a STEMI. Additional inclusion criteria were presented within 6 hours of chest pain onset and occlusion of culprit artery with TIMI basal flow grade 0 to 1. Patients randomised to intravenous melatonin received a dose of 12 mg (51.7 μmol, in saline solution, in a volume of 50 ml in an opaque syringe) given by a time period of 60 minutes starting immediately before primary percutaneous coronary intervention (pPCI), by via a catheter positioned within a peripheral vein. The control group received a matching intravenous placebo formulation.
A total of 31 patients were enrolled. Groups were well balanced for age, gender, and cardiovascular risk factors. No significant differences were observed between groups concerning baseline clinical and angiographic characteristics. Randomized patients were divided in 2 groups: Group 1 (patients with ischemia duration 3 hours) and Group 2 (patients with ischemia duration >3 hours). Group 1 there had 17 patients (8 treated with melatonin and 9 with placebo) and in the group 2 there were 14 patients (6 treated with melatonin and 8 with placebo).
Myocardial infarct size was calculated as percentage of left ventricular mass by cardiovascular magnetic resonance (CMR).

[1] = system: closed-chest porcine model; details: combined intracoronary and intravenous treatment; cited from earlier work
[2] = system: patients with ST-segment elevation myocardial infarction (STEMI); details: earlier published trial; cited from earlier work
[3] = Group 1 (≤3 hours ischemia duration), 12 mg intravenous over 60 min starting immediately before pPCI, CMR, *P < 0.01 vs Placebo
[4] = Group 2 (>3 hours ischemia duration), 12 mg intravenous over 60 min starting immediately before pPCI, CMR

With `COc1ccc2[nH]cc(CCNC(C)=O)c2c1` [Melatonin, melatonin] the “Infarct size (g)” value (STEMI-patients; [3]) was 16.53 ± 7.28* g, the “Infarct size (proportion of left ventricular mass) %” value (STEMI-patients; [3]) was 17.71 ± 7.55* % and the “Infarct size” value (STEMI-patients; [4]) was 25.69 ± 7.34 g. For the same molecule, the “Infarct size (proportion of left ventricular mass) %” value (STEMI-patients; [4]) was 20.62 ± 5.37%, the “Myocardial infarct size compared with placebo” value (STEMI-patients; intravenous, given within 3 hours or less after symptom onset (group 1)) was “significantly reduces myocardial infarct size; also recorded: significantly smaller” and the “Effect on myocardial infarct size compared with placebo” value (STEMI-patients; time from symptom onset to melatonin administration longer than 3 hours) was “significantly reduced or even opposite effect”. For the same molecule, the Myocardial reperfusion injury [1] was “did not reduce myocardial reperfusion injury”, the “Effect on ventricular volumes and LVEF evolution” value [2] was “unfavorable effect” and the “Myocardial infarct size (MIS) compared with placebo” value [2] was “failed to reduce myocardial infarct size”.
